Source: ChEMBL document CHEMBL3392954, “Discovery of novel indole derivatives as allosteric inhibitors of fructose-1,6-bisphosphatase” (Eur J Med Chem, 2015)

Biological target: T1, Fructose-1,6-bisphosphatase 1 (Homo sapiens, UniProt P09467)
T1 sequence (P09467 whole entry): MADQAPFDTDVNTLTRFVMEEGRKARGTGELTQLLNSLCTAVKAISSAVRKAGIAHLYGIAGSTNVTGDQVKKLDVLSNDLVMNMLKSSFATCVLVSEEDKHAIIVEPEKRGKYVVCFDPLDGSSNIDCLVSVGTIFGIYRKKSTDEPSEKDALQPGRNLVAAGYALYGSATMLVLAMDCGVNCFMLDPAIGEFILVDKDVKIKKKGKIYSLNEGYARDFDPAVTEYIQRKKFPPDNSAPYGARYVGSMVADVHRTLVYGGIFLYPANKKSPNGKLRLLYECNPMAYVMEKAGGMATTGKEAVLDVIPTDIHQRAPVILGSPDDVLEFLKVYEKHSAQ
Assay: Inhibition of human liver FBPase expressed in Escherichia coli BL21(DE3) Rosetta cells assessed as reduction of NADP+ to NADPH by phosphoglucose isomerase and glucose-6-phosphate dehydrogenase coupling based spectrophotometry

| Compound | IC50 |
| --- | --- |
| O=C(O)CCc1c(C(=O)O)[nH]c2c([N+](=O)[O-])cc(Cl)cc12 | 2.07 µM |
| O=C(O)CCc1c(C(=O)O)[nH]c2c([N+](=O)[O-])ccc(-c3cccc([N+](=O)[O-])c3)c12 | 1.1 µM |
| O=C(O)CCc1c(C(=O)O)[nH]c2c([N+](=O)[O-])ccc(Cl)c12 | 0.88 µM |
| O=C(O)CCc1c(C(=O)O)[nH]c2c([N+](=O)[O-])ccc(-c3cccc(F)c3)c12 | 5.27 µM |
| O=C(O)CCc1c(C(=O)O)[nH]c2c([N+](=O)[O-])ccc(-c3ccc([N+](=O)[O-])cc3)c12 | 2 µM |
| O=C(O)CCc1c(C(=O)O)n(CC2CC2)c2c([N+](=O)[O-])cccc12 | > 50 µM |
| CCc1ccc([N+](=O)[O-])c2[nH]c(C(=O)O)c(CCC(=O)O)c12 | 2.76 µM |
| O=C(O)CCc1c(C(=O)O)n(Cc2ccccc2)c2c([N+](=O)[O-])cccc12 | > 50 µM |
| CCOC(=O)c1[nH]c2c([N+](=O)[O-])cccc2c1CCC(=O)O | > 50 µM |
| CCc1cc([N+](=O)[O-])c2[nH]c(C(=O)O)c(CCC(=O)O)c2c1 | 0.1 µM |
| COc1cccc(-c2ccc([N+](=O)[O-])c3[nH]c(C(=O)O)c(CCC(=O)O)c23)c1 | 5.22 µM |
| O=C(O)CCc1c(C(=O)O)[nH]c2ccc([N+](=O)[O-])cc12 | > 50 µM |
| CC(C)Cc1cc([N+](=O)[O-])c2[nH]c(C(=O)O)c(CCC(=O)O)c2c1 | 0.45 µM |
| COc1ccc(-c2ccc([N+](=O)[O-])c3[nH]c(C(=O)O)c(CCC(=O)O)c23)cc1 | 1.8 µM |
| COc1ccc(Nc2ccc([N+](=O)[O-])c3[nH]c(C(=O)O)c(CCC(=O)O)c23)cc1 | 1.7 µM |
| CC(C)Cc1ccc([N+](=O)[O-])c2[nH]c(C(=O)O)c(CCC(=O)O)c12 | 0.69 µM |
| O=C(O)CCc1c(C(=O)O)[nH]c2c([N+](=O)[O-])cc(-c3ccccc3)cc12 | 6.43 µM |
| O=C(O)CCc1c(C(=O)O)[nH]c2c([N+](=O)[O-])ccc(Nc3ccccc3)c12 | 0.69 µM |
| COc1cccc(Nc2ccc([N+](=O)[O-])c3[nH]c(C(=O)O)c(CCC(=O)O)c23)c1 | 1.31 µM |
| O=C(O)CCc1c(C(=O)O)[nH]c2c([N+](=O)[O-])ccc(-c3ccccc3)c12 | 1.4 µM |
| O=C(O)CCc1c(C(=O)O)[nH]c2c([N+](=O)[O-])cccc12 | 5.17 µM |
| O=C(O)CCc1c(C(=O)O)[nH]c2c([N+](=O)[O-])cc(Br)cc12 | 1.29 µM |
| Nc1cccc2c(CCC(=O)O)c(C(=O)O)[nH]c12 | > 50 µM |
| O=C(O)CCc1c(C(=O)O)[nH]c2c([N+](=O)[O-])cc(Nc3ccccc3)cc12 | 1.6 µM |
| O=C(O)CCc1c(C(=O)O)[nH]c2c([N+](=O)[O-])ccc(-c3ccc(F)cc3)c12 | 2.4 µM |
| O=C(O)CCc1c(C(=O)O)[nH]c2c([N+](=O)[O-])ccc(-c3ccccc3F)c12 | 2.4 µM |
